Source: PMC7083565, “In vitro metabolism, reaction phenotyping, enzyme kinetics, CYP inhibition and induction potential of ataluren” (Pharmacology Research & Perspectives, 2020)

Molecular target: T1, UGT1A9 (Homo sapiens, UniProt O60656)
T1 construct: purchased BD Biosciences; host or cells: baculovirus-infected insect cells
T1 sequence (O60656 26-530): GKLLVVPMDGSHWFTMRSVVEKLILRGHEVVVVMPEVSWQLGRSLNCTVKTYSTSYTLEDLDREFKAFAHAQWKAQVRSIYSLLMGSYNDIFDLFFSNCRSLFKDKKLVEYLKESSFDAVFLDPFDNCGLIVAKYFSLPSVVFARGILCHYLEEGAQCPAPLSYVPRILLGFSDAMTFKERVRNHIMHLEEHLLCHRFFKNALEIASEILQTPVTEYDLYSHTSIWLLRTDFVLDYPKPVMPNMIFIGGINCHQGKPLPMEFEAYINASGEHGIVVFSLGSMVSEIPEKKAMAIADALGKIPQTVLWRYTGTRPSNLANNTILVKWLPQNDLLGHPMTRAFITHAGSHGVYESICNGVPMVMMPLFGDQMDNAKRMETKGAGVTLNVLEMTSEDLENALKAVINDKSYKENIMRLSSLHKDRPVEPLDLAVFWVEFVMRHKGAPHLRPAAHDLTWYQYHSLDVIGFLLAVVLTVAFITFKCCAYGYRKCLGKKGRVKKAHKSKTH
Assay: Reaction phenotyping with recombinant human UGT enzymes: UGT1A9
Type: in vitro ADME
Conditions: rUGT1A9 0.25 mg protein/mL, 10 μmol/L, 60 minutes, n = 2
Description: Ataluren at 10 μmol/L, was incubated (n = 2) with recombinant human uridine diphosphate glucuronosyltransferase (rUGT) enzymes: rUGTs 1A1, 1A3, 1A4, 1A6, 1A7, 1A8, 1A9, 1A10, 2B4, 2B7, 2B15, and 2B17 at 0.25 mg protein/mL. Incubations were conducted in duplicate at 37°C. The incubation mixture (0.2 mL, final volume with 1% methanol) consisted of Tris‐HCl buffer (100 mmol/L, pH 7.7 at 37°C), MgCl2 (10 mmol/L), EDTA (1 mmol/L), saccharic acid 1,4‐lactone (0.1 mmol/L), and UDPGA (8 mmol/L). […] Samples were subjected to centrifugation (920 g for 10 minutes at 10°C) and the supernatant fractions were analyzed by LC‐MS/MS to quantify the formation of ataluren‐O‐1β‐acyl glucuronide and loss of ataluren. […] The ataluren acyl glucuronide formation rate after 60 minutes incubation was calculated using the amount of metabolite formed (pmol) divided by the protein amount in the incubation sample (0.05 mg) and the incubation time (60 minutes).
Quantification of ataluren loss and ataluren‐O‐1β‐acyl glucuronide formation was carried out with an LC‐MS/MS system, which consisted of two Shimadzu LC‐10ADvp pumps, a SPD10‐AVP UV/Vis detector, a Shimadzu SILHTA autosampler, a Shimadzu DGU‐14A degasser, and a Sciex API 4000 QTRAP mass spectrometer equipped with a Turbo Ionspray ionization source that operated in positive ionization mode. […]

O=C(O)c1cccc(-c2noc(-c3ccccc3F)n2)c1 [ataluren, Ataluren]
ataluren loss: 32.7%
